Experimental data from patent US11707464B2, “Methods of treating heavy menstrual bleeding” (AbbVie Inc., priority 2013, dated 2023).

Legend:
Assay type in all cases: in vivo, human
women with endometriosis = experiment: Phase 2 endometriosis studies: safety and tolerability
Text: The safety and tolerability of elagolix in women with endometriosis has been evaluated in 6 completed Phase 2 studies including 708 women who received at least 1 dose of elagolix. Overall, 475 women have received elagolix for at least 12 weeks and 278 women for a period of at least 24 weeks. The majority of women were Caucasian (78.9% to 100%), while approximately 7% were black and approximately 4.5% were Hispanic. The mean age across these six Phase 2 studies was 31 to 33 years (range 18 to 48 years) and mean body mass index (BMI) of 23 to 28 kg/m. Overall, 40% to 70% of women had received prior therapy for the treatment of endometriosis, and hormonal contraceptives were the most common class of drug prescribed for the condition. In addition, the majority were receiving analgesic medications (nonsteroidal anti-inflammatory drugs, opioids, and/or other) prior to study enrollment.
None of these events were serious and they contributed to less than 1% of study discontinuations.

[1] = system: premenopausal women with uterine fibroids and heavy menstrual bleeding; experiment: Phase 2a uterine fibroid trial: menstrual blood loss by alkaline hematin (AH) method; details: for percent of subjects who achieved the composite bleeding endpoint (MBL <80 mL at Final Month and ≥50% reduction in MBL from baseline): last 28 days of treatment, AH method, placebo 30%; for Average Total Blood Loss Measured by AH Method During Treatment: 3 months of treatment; for Average Blood Loss Per Cycle Measured by AH Method in Screening: screening (baseline before treatment)
Protocol: Methods for analyzing menstrual blood loss are known in the art and include, for example, the alkaline hematin method. The alkaline hematin method is based on the quantitation of menstrual blood collected on sanitary products (Hallberg L., Nilsoon L., Determination of Menstrual Blood Loss. Scand. J. Clin. Lab. Invest., 1964; 16:244-248). The method uses a strong alkaline solution to chemically convert the heme from bloodstained sanitary products to alkaline hematin, which is measured colorimetrically. When compared to a subject's serum hemoglobin (Hgb), the volume of blood loss in the menstrual products can be determined.
This example is a Phase 2a, multicenter, double-blind, placebo-controlled, randomized trial (N=280) with a 3-month treatment duration evaluating the safety and efficacy of Elagolix administered with or without Activella® in premenopausal women with uterine fibroids.
It evaluates the safety and efficacy of […] of Elagolix (100 mg BID, 200 mg BID, 200 mg BID plus low dose Activella® (a combination of 0.5 mg estradiol and 0.1 mg northindrone acetate), 300 mg BID, 300 mg BID plus 1.0 mg of Estrace and 200 mg cyclical Prometrium (collectively referred to as “EP”), 400 mg QD and 600 QD) versus placebo (PBO) to reduce uterine bleeding associated with uterine fibroids and to reduce fibroid volume and uterine volume in premenopausal women 20 to 49 years of age with heavy menstrual bleeding (HMB; >80 mL blood loss per menstrual cycle). The study involved the following six (6) cohorts:
There are a number of efficacy endpoints, but a composite endpoint consisting of two bleeding assessments was used to assess one measure of efficacy. It included the percent of subjects who achieved a menstrual blood loss (MBL) volume of <80 mL at the Final Month (last 28 days of treatment), and also achieved a ≥50% reduction in MBL volume from baseline to the Final Month (last 28 days of treatment) as measured by the Alkaline Hematin (AH) method. Eighty-five percent (85%), 97%, and 30% of subjects achieved the composite bleeding assessment endpoint in the 200 mg BID, 300 mg BID, and placebo groups, respectively (P<0.05 for 200 mg BID versus placebo in cohort 1, and 300 mg BID versus placebo in cohort 2). Eighty-two percent (82%) of subjects in the 200 mg BID+low-dose Activella® (low dose Activella® is a combination of (a combination of 0.5 mg estradiol and 0.1 mg norethindrone acetate) group achieved this composite endpoint. With respect to fibroid and uterine volumes, 63%, 55%, and 29% of subjects achieved a ≥25% reduction in fibroid volume and 50%, 68%, and 9% achieved a ≥25% reduction in uterine volume in the 200 mg BID, 300 mg BID, and placebo groups, respectively. In the 200 mg BID+low dose group, 53% and 42% of subjects achieved a ≥25% reduction in fibroid and uterine volume, respectively. Quality of life (QoL) measures were also determined using the “Responsiveness of the uterine fibroid symptom and health-related quality of life questionnaire” (UFS-QOL) (Harding, Gale, Coyne Karin S., Thompson Christine L., Spies James B, United BioSource Corporation, 7101 Wisconsin Avenue, Suite 600, Bethesda, Md., 20814, USA, Health and Quality Life Outcomes, 2008, 6, page 99).

[2] = system: premenopausal women with endometriosis; experiment: Phase 2 endometriosis studies: uterine bleeding by daily eDiary; details: for days of bleeding per month: eDiary
Protocol: The effects of elagolix on uterine bleeding were evaluated in the Phase 2 endometriosis program, with an analysis of the percentage of days of bleeding per month according to daily reporting of bleeding in an electronic diary (eDiary).

women = experiment: Suppression of pituitary and ovarian hormones in women
Text: The term “Elagolix” refers to 4-((R)-2-[5-(2-fluoro-3-methoxy-phenyl)-3-(2-fluoro-6-trifluoromethyl-benzyl)-4-methyl-2,6-dioxo-3,6-dihydro-2H-pyrimidin-1-yl]-1-phenyl-ethylamino)-butyric acid or a pharmaceutically acceptable salt thereof. Elagolix is an orally active, non-peptide GnRH antagonist and is unlike other GnRH agonists and injectable (peptide) GnRH antagonists. […] Methods of making Elagolix and a pharmaceutically acceptable salt thereof are described in WO 2005/007165, the contents of which are herein incorporated by reference.

Q: `COc1cccc(-c2c(C)n(Cc3c(F)cccc3C(F)(F)F)c(=O)n(C[C@H](NCCCC(=O)O)c3ccccc3)c2=O)c1F` [Elagolix, 4-((R)-2-[5-(2-fluoro-3-methoxy-phenyl)-3-(2-fluoro-6-trifluoromethyl-benzyl)-4-methyl-2,6-dioxo-3,6-dihydro-2H-pyrimidin-1-yl]-1-phenyl-ethylamino)-butyric acid] was tested. Which “most common adverse events” value (women with endometriosis; 12-week and 24-week analysis sets, incidence similar to DMPA-SC in 24-week analysis) did it give?
A: The value was “headache and nausea”.

Q: What about the safety and tolerability (women with endometriosis; all daily doses (100 to 250 mg) evaluated) of the same compound?
A: Its safety and tolerability is “safe and well tolerated”.

Q: What about the “incidence of AEs that led to discontinuations” value (women with endometriosis; completed Phase 2 endometriosis studies) of the same compound?
A: The value was 4.8%.

Q: And the “study discontinuations contributed by headache and nausea” value (women with endometriosis; none of these events serious)?
A: Its value is “less than 1%”.

Q: And the “percent of subjects who achieved the composite bleeding endpoint (MBL <80 mL at Final Month and ≥50% reduction in MBL from baseline)” value ([1]; 200 mg BID)?
A: Its value is 85%.

Q: What about the inhibition of bleeding ([1]; 300 mg BID without add-back therapy, most of women achieved amenorrhea) of the same compound?
A: The inhibition of bleeding was “maximum inhibition of bleeding”.

Q: What about the “percent of subjects who achieved the composite bleeding endpoint (MBL <80 mL at Final Month and ≥50% reduction in MBL from baseline)” value ([1]; 300 mg BID) of the same compound?
A: Its value is 97%.

Q: What about the inhibition of bleeding ([1]; 400 mg QD, compared with 300 mg BID) of the same compound?
A: The inhibition of bleeding was “slightly less effective”.

Q: What about the inhibition of bleeding ([1]; 600 mg QD, compared with 300 mg BID) of the same compound?
A: The inhibition of bleeding was “slightly less effective”.

Q: What about the “Average Total MBL from Days 36-65 Post-Baseline” value ([1]; Elagolix 100 BID, N = 26) of the same compound?
A: The value was 100.9 mL.

Q: And the “Average Total MBL in Days 66-95 Post-Baseline” value ([1]; Elagolix 100 BID, N = 26)?
A: Its value is 65.4 mL.

Q: And the “Average total MBL from days 6-35 post-baseline” value ([1]; Elagolix 100 BID, N = 26)?
A: Its value is 33.2 mL.

Q: What about the “Average Total Blood Loss Measured by AH Method During Treatment” value (from here on “Average Total Blood Loss Measured”) ([1]; Elagolix 100 BID, N = 26) of the same compound?
A: The value was 198.4 mL.

Q: What about the “Average Total MBL from Days 36-65 Post-Baseline” value ([1]; Elagolix 200 BID, N = 28) of the same compound?
A: Its value is 5.5 mL.

Q: What about the “Average Total MBL in Days 66-95 Post-Baseline” value ([1]; Elagolix 200 BID, N = 28) of the same compound?
A: Its value is 41.5 mL.

Q: What about the “Average total MBL from days 6-35 post-baseline” value ([1]; Elagolix 200 BID, N = 28) of the same compound?
A: Its value is 0 mL.

Q: And the “Average Total Blood Loss Measured” value ([1]; Elagolix 200 BID, N = 28)?
A: Its value is 47.0 mL.

Q: And the “Average Total MBL from Days 36-65 Post-Baseline” value ([1]; Elagolix 300 BID, N = 26)?
A: The value was 0 mL.

Q: What about the “Average Total MBL in Days 66-95 Post-Baseline” value ([1]; Elagolix 300 BID, N = 26) of the same compound?
A: Its value is 4.3 mL.

Q: And the “Average total MBL from days 6-35 post-baseline” value ([1]; Elagolix 300 BID, N = 26)?
A: The value was 0 mL.

Q: What about the “Average Total Blood Loss Measured” value ([1]; Elagolix 300 BID, N = 26) of the same compound?
A: Its value is 4.3 mL.

Q: What about the “Average Total MBL from Days 36-65 Post-Baseline” value ([1]; Elagolix 400 QD, N = 26) of the same compound?
A: The value was 12.4 mL.

Q: And the “Average Total MBL in Days 66-95 Post-Baseline” value ([1]; Elagolix 400 QD, N = 26)?
A: The value was 21.6 mL.

Q: What about the “Average total MBL from days 6-35 post-baseline” value ([1]; Elagolix 400 QD, N = 26) of the same compound?
A: Its value is 14.9 mL.

Q: What about the “Average Total Blood Loss Measured” value ([1]; Elagolix 400 QD, N = 26) of the same compound?
A: The value was 38.4 mL.

Q: And the “Average Total MBL from Days 36-65 Post-Baseline” value ([1]; Elagolix 600 QD, N = 24)?
A: Its value is 35.0 mL.

Q: And the “Average Total MBL in Days 66-95 Post-Baseline” value ([1]; Elagolix 600 QD, N = 24)?
A: The value was 14.9 mL.

Q: What about the “Average total MBL from days 6-35 post-baseline” value ([1]; Elagolix 600 QD, N = 24) of the same compound?
A: Its value is 27.6 mL.

Q: What about the “Average Total Blood Loss Measured” value ([1]; Elagolix 600 QD, N = 24) of the same compound?
A: The value was 69.6 mL.

Q: And the “Average Blood Loss Per Cycle Measured by AH Method in Screening” value (“Average Blood Loss Per Cycle Measured” below) ([1]; group Elagolix 100 BID, N = 26)?
A: The value was 276.4 mL.

Q: What about the “Average Blood Loss Per Cycle Measured” value ([1]; group Elagolix 200 BID, N = 28) of the same compound?
A: Its value is 287.4 mL.

Q: What about the “Average Blood Loss Per Cycle Measured” value ([1]; group Elagolix 300 BID, N = 26) of the same compound?
A: Its value is 224.8 mL.

Q: And the “Average Blood Loss Per Cycle Measured” value ([1]; group Elagolix 400 QD, N = 26)?
A: The value was 220.3 mL.

Q: What about the “Average Blood Loss Per Cycle Measured” value ([1]; group Elagolix 600 QD, N = 24) of the same compound?
A: Its value is 228.7 mL.

Q: What about the “days of bleeding per month” value ([2]; 250 mg QD compared with 150 mg QD) of the same compound?
A: The value was “fewer days of bleeding”.

Q: And the “bleeding intensity and intervals between bleeding episodes” value ([2]; majority of elagolix recipients, individual menstrual charts from eDiary)?
A: The value was “reduced bleeding intensity and often had extended intervals between bleeding episodes”.

Q: What about the “days of bleeding per month” value ([2]; overall, compared with placebo) of the same compound?
A: The value was “fewer days of bleeding per month”.

Q: What about the “suppression of pituitary and ovarian hormones” value (women) of the same compound?
A: The value was “dose dependent suppression”.
